The values that follow come from patent US11696928B2, “Compounds and use thereof in the expansion of stem cells and/or progenitor cells” (UNIVERSITE DE MONTREAL, priority 2017, dated 2023).

For data set [1], the system named is Human CD34+ cord blood (CB) cells. Nature of the data set: Assessment of engraftment and myeloid vs lymphoid lineage contribution in vivo. The arrangement: species or system NSG mice.
Data set [2] shares this test system. Nature of the data set: Assessment of cell composition in vitro (7-day culture of CB CD34+ cells). The note with it: for expansion of CD34+CD45RA+ cells: alone or in combination with UM171, 7 days, FIGS. 1B, 1C and 1D; for overall percentage of CD34+ cells in cultures: combined use with UM171, 7 days, FIG. 1A right panel and FIG. 1D; for percentage of Dendritic Cells and Mast Cells: combined use with UM171, compared to Compounds used alone, FIG. 1D.

Data set [3] shares this test system. Put plainly: CD34+ activity assessment (7-day expansion of pre-expanded CD34+ cells, flow cytometry). The class given is cell-based. The note with it: concentration at which compound/vehicle ratio of CD34+ cell number is >= 1.5, 7 days, with 35 nM UM0128171.
The target of a further data set is T1, AhR (Homo sapiens, UniProt P35869).
T1 construct: One of the resultant clones was named HEK-XRE 11.1, and used in the reporter gene assays; endogenous in cells; host or cells: HEK-XRE 11.1 (HEK cells stably carrying the AhR-responsive luciferase reporter X4-4.27 and phRL-CMV)
T1 sequence (P35869 11-848): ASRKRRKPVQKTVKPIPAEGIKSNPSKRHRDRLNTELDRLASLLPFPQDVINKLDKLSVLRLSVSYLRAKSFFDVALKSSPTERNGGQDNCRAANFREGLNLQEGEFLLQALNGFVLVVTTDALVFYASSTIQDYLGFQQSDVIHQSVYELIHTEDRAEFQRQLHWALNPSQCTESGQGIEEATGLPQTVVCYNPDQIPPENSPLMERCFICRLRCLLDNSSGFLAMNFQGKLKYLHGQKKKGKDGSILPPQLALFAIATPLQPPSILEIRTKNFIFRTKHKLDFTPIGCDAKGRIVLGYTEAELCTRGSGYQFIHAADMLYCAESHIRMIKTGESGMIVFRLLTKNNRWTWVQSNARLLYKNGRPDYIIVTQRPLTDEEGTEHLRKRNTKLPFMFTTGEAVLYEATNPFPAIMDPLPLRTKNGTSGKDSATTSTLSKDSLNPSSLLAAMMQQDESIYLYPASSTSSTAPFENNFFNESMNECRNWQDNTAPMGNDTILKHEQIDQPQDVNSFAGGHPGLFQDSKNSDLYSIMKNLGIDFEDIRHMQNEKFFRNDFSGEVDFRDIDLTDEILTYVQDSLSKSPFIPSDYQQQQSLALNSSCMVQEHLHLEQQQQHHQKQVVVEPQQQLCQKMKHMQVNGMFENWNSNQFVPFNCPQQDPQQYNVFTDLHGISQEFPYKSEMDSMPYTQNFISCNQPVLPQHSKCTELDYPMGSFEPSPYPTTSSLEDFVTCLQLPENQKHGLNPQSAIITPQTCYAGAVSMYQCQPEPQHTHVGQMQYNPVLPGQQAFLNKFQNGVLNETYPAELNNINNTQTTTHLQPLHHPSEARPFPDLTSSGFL
Nature of the data set: Inhibition of AhR-mediated gene transcription (HEK-XRE 11.1 luciferase reporter, MeBIO induction). The data set is classed as cell-based. To be noted: HEK-XRE 11.1 cells, MeBIO 0.1 nM, luminescence after 24 hours. The essentials: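 HEK-XRE 11.1 cells, stably carrying an AhR-responsive firefly luciferase reporter, were stimulated with 0.1 nM MeBIO and given compounds in 8-point 1:3 serial dilutions from 10 mM (stock-range figure) in duplicate. Luminescence was read after 24 h culture without Renilla normalisation. Dose-response curves were fitted by nonlinear regression.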
In general terms: A reporter such as luciferase makes a cellular process visible.

Bounds are passed on as bounds.

Broadly, the IC50 is the point on the concentration scale where inhibition reaches its midpoint. High values mean a need for much substance, low ones inhibition by little substance. Turning to `Nc1c(C(=O)Nc2ccccc2)sc2nc3c(cc12)CCC3` [Compound 1001], the “engraftment of expanded CB cells in the long term (12 and 20 weeks post transplantation)” value in data set [1] (CB cells expanded 7 days, alone or in combination with UM171, NSG mice bone marrow, FIG. 2A) is listed as “engrafted with higher efficiency in the long term”. In data set [1] (engrafted human CB cells in NSG mice, FIG. 2B), the “contribution of lymphoid lineage” value is listed as “greatly increased”. The “number of CD34+ cells in CB cultures” value in data set [2] (7 days culture, compared to other conditions, FIG. 1A middle) is given as “increases the number of CD34+ cells”. Besides, in data set [2], the “expansion of CD34+CD45RA+ cells” value is “favors the expansion of CD34+CD45RA+ cells”; the “overall percentage of CD34+ cells in cultures” value is reported as “increased the overall percentage of CD34+ cells”; the “percentage of Dendritic Cells and Mast Cells” value was “increased the percentage of Dendritic Cells and Mast Cells”. Also, the EC1.5 in data set [3] (Table 1) was less than 100 nM. Further, the IC50 against AhR (Table 1) is less than 50 nM.

`COc1ccc(NC(=O)c2sc3ncc(C)cc3c2N)cc1` [Compound 1114]: in data set [2], the “expansion of CD34+CD45RA+ cells” value was “favors the expansion of CD34+CD45RA+ cells”; the “overall percentage of CD34+ cells in cultures” value is “increased the overall percentage of CD34+ cells”; the “percentage of Dendritic Cells and Mast Cells” value is “increased the percentage of Dendritic Cells and Mast Cells”. The EC1.5 in data set [3] (Table 1) is less than 100 nM. The compound further gave an IC50 against AhR (Table 1) of less than 50 nM.

On to `Cc1ccc2sc(C(=O)Nc3ccc(Br)cc3)c(N)c2c1` [Compound 1132], for which the EC1.5 in data set [3] (Table 1) is greater than 5000 nM. The compound also displayed an IC50 at AhR (Table 1) of 50 to 500 nM.

On to `COc1ccc(NC(=O)c2sc3ncc(C)cc3c2N)cc1Cl` [Compound 1135], for which the EC1.5 in data set [3] (Table 1) is on record as less than 100 nM. The compound also registered an IC50 on AhR (Table 1) of less than 50 nM.

With `COc1ccc(NC(=O)c2sc3ccc(C(F)(F)F)cc3c2N)cc1Cl` [Compound 1136], the EC1.5 in data set [3] (Table 1) is greater than 5000 nM. On AhR (Table 1), this compound came in with a half-maximal inhibitory concentration (IC50) of less than 50 nM.

For the compound `Cc1cnc2sc(C(=O)Nc3ccc(C(F)(F)F)cc3)c(N)c2c1` [Compound 1137], the EC1.5 in data set [3] (Table 1) is less than 100 nM. The same compound yielded an IC50 on AhR (Table 1) of less than 50 nM.

As for `Nc1c(C(=O)Nc2ccc(C(F)(F)F)cc2)sc2ccc(C(F)(F)F)cc12` [Compound 1138], the EC1.5 in data set [3] (Table 1) is reported as greater than 5000 nM. This compound yielded a half-inhibitory concentration (IC50) against AhR (Table 1) of 50 to 500 nM.

For `Cc1cnc2sc(C(=O)Nc3cccc(Cl)c3)c(N)c2c1` [Compound 1139], the EC1.5 in data set [3] (Table 1) is 100 to 1000 nM. On AhR (Table 1), the half-maximal inhibitory concentration (IC50) was less than 50 nM.

As for `Cc1cccc(NC(=O)c2sc3ncc(C)cc3c2N)c1` [Compound 1140], in data set [3] (Table 1), the EC1.5 lay within 100 to 1000 nM. This compound yielded an IC50 on AhR (Table 1) of 50 to 500 nM.

For `Cc1cnc2sc(C(=O)Nc3ccc4c(c3)OCCO4)c(N)c2c1` [Compound 1141], the EC1.5 in data set [3] (Table 1) fell in the range of 100 to 1000 nM. This compound also returned an IC50 on AhR (Table 1) of 50 to 500 nM.

Turning to `CCOc1ccc(NC(=O)c2sc3ncc(C)cc3c2N)cc1` [Compound 1142], the EC1.5 in data set [3] (Table 1) lay within 100 to 1000 nM. Further, the half-inhibitory concentration (IC50) against AhR (Table 1) was less than 50 nM.

As to `CSc1ccc(NC(=O)c2sc3ncc(C)cc3c2N)cc1` [Compound 1143], in data set [3] (Table 1), the EC1.5 is on record as less than 100 nM. Further, the half-inhibitory concentration (IC50) against AhR (Table 1) is less than 50 nM.

Consider `Nc1c(C(=O)Nc2cccc(Cl)c2)sc2ccc(C(F)(F)F)cc12` [Compound 1144], for which, in data set [3] (Table 1), the EC1.5 is listed as greater than 5000 nM. The compound further yielded an IC50 on AhR (Table 1) of less than 50 nM.

On to `Cc1cccc(NC(=O)c2sc3ccc(C(F)(F)F)cc3c2N)c1` [Compound 1145], for which the EC1.5 in data set [3] (Table 1) was greater than 5000 nM. In addition, the IC50 against AhR (Table 1) was 50 to 500 nM.

`Nc1c(C(=O)Nc2ccc3c(c2)OCCO3)sc2ccc(C(F)(F)F)cc12` [Compound 1146]: in data set [3] (Table 1), the EC1.5 is on record as greater than 5000 nM. The concentration for half-maximal inhibition (IC50) at AhR (Table 1) lay within 50 to 500 nM.

Regarding `CCOc1ccc(NC(=O)c2sc3ccc(C(F)(F)F)cc3c2N)cc1` [Compound 1147], the EC1.5 in data set [3] (Table 1) is on record as greater than 5000 nM. The compound also yielded a half-inhibitory concentration (IC50) on AhR (Table 1) of 50 to 500 nM.

On to `CSc1ccc(NC(=O)c2sc3ccc(C(F)(F)F)cc3c2N)cc1` [Compound 1148], for which, in data set [3] (Table 1), the EC1.5 is 100 to 1000 nM. At AhR (Table 1), this compound returned an IC50 of 50 to 500 nM.

Consider `Cc1cnc2sc(C(=O)Nc3ccc(OC(F)(F)F)cc3)c(N)c2c1` [Compound 1149], for which the EC1.5 in data set [3] (Table 1) fell in the range of 100 to 1000 nM. Moreover, at AhR (Table 1), the 50% inhibitory concentration (IC50) was less than 50 nM.

As for `Cc1cnc2sc(C(=O)Nc3ccsc3)c(N)c2c1` [Compound 1150], in data set [3] (Table 1), the EC1.5 fell in the range of 100 to 1000 nM. Besides, on AhR (Table 1), the half-inhibitory concentration (IC50) is less than 50 nM.

Take `Cc1ccc2sc(C(=O)Nc3ccc(OC(F)(F)F)cc3)c(N)c2c1` [Compound 1151]: the EC1.5 in data set [3] (Table 1) is greater than 5000 nM. The compound further came in with a concentration for half-maximal inhibition (IC50) against AhR (Table 1) of 50 to 500 nM.

Consider `Nc1c(C(=O)Nc2ccsc2)sc2ccc(C(F)(F)F)cc12` [Compound 1152], for which the EC1.5 in data set [3] (Table 1) was greater than 5000 nM. Further, the concentration for half-maximal inhibition (IC50) at AhR (Table 1) is less than 50 nM.

Regarding `Nc1c(C(=O)Nc2ccc(F)cc2)oc2ncc(C(F)(F)F)cc12` [Compound 1154], the EC1.5 in data set [3] (Table 2) is 100 to 1000 nM. The IC50 against AhR (Table 2) is less than 50 nM.
